Values joined by “and” are separate entries in the source; they are usually repeats but may differ in a detail not shown here. Equal values may be shown once.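 A five-concentration, 48-hour dose response in 96-well plates underlies each endpoint, interpolated linearly between surrounding concentrations. GI50 marks 50% less growth. TGI marks complete inhibition of growth.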
What was measured:
Test in all cases: inhibition of tumour cell growth, NCI panel, 48 h; in the data active = GI50 below about 0.43 µM; inactive = the rest
[1] = test system: BT-549 breast
[2] = test system: SF-268 CNS
[3] = test system: IGROV1 ovarian
[4] = test system: A498 renal
[5] = test system: OVCAR-4 ovarian
[6] = test system: HOP-62 NSCLC
[7] = test system: MDA-MB-435
[8] = test system: RPMI-8226 leukemia
[9] = test system: HT29 colon
[10] = test system: DU-145 prostate
[11] = test system: NCI-H460 lung
[12] = test system: NCI-H226 lung
[13] = test system: SN12C renal
[14] = test system: MDA-MB-231 breast
[15] = test system: MOLT-4 leukemia
[16] = test system: SF-539 CNS
[17] = test system: OVCAR-5 ovarian
[18] = test system: HS 578T breast
[19] = test system: 786-0 renal
[20] = test system: SK-MEL-28 melanoma
[21] = test system: ACHN renal
[22] = test system: SF-295 CNS
[23] = test system: NCI/ADR-RES ovarian
[24] = test system: SR leukemia
[25] = test system: PC-3 prostate
[26] = test system: OVCAR-3 ovarian
[27] = test system: SK-OV-3 ovarian
[28] = test system: SNB-75 CNS
[29] = test system: SW-620 colon
[30] = test system: K-562 leukemia
[31] = test system: CCRF-CEM leukemia
[32] = test system: HCC-2998 colon
[33] = test system: SK-MEL-2 melanoma
[34] = test system: KM12 colon
[35] = test system: UO-31 renal
[36] = test system: OVCAR-8 ovarian
[37] = test system: MALME-3M melanoma
[38] = test system: TK-10 renal
[39] = test system: SK-MEL-5 melanoma
[40] = test system: EKVX NSCLC
[41] = test system: T-47D breast
[42] = test system: U251 CNS
[43] = test system: NCI-H23 lung
[44] = test system: NCI-H522 lung
[45] = test system: LOX IMVI melanoma
[46] = test system: SNB-19 CNS
[47] = test system: M14 melanoma
[48] = test system: HL-60(TB) leukemia
[49] = test system: MCF7 breast
[50] = test system: A549 NSCLC
[51] = test system: UACC-62 melanoma
[52] = test system: HCT-15 colon
[53] = test system: CAKI-1 renal
[54] = test system: HCT-116 colon
[55] = test system: COLO 205 colon
[56] = test system: HOP-92 NSCLC

CC[C@H](C)[C@H](NC(=O)[C@H]1CCCCN1C)C(=O)N(C)[C@H](C[C@@H](OC(C)=O)c1nc(C(=O)NC23CC(C(=O)OC)(C2)C3)cs1)C(C)C
7.79 nM and 6.01 nM: TGI [16]
10.3 nM and 11 nM: TGI [9]
> 32.5 µM: TGI [2] | TGI [3] | TGI [5] | TGI [10] | TGI [11] | TGI [13] | TGI [14] | TGI [15] | TGI [17] | TGI [18] | TGI [19] | TGI [20] | TGI [21] | TGI [24] | TGI [25] | TGI [27] | TGI [28] | TGI [29] | TGI [30] | TGI [32] | TGI [35] | TGI [36] | TGI [37] | TGI [40] | TGI [42] | TGI [43] | TGI [45] | TGI [46] | TGI [49] | TGI [50] | TGI [51] | TGI [52] | TGI [54]
active: GI50 [1] 0.48 nM and 3.25 nM | GI50 [2] 0.937 nM and 3.25 nM | GI50 [3] 1.32 nM and 3.25 nM | GI50 [4] 7.23 nM and 3.25 nM | GI50 [5] 42.4 nM and 72.7 nM | GI50 [6] 0.538 nM and 3.25 nM | GI50 [7] 0.137 nM and < 3.25 nM | GI50 [8] 0.328 nM and 3.25 nM | GI50 [9] 0.433 nM and 3.25 nM | GI50 [10] 0.449 nM and 3.25 nM | GI50 [11] 0.7 nM and 3.25 nM | GI50 [12] 133 nM | GI50 [13] 0.654 nM and 3.25 nM | GI50 [14] 1.63 nM and 3.63 nM | GI50 [15] 0.696 nM and 3.25 nM | GI50 [16] 0.553 nM and 3.25 nM | GI50 [18] 0.388 nM and 3.25 nM | GI50 [19] 0.64 nM and 3.25 nM | GI50 [21] 8.06 nM and 3.25 nM | GI50 [22] 1.28 nM and 3.25 nM | GI50 [23] 52.2 nM and 47.9 nM | GI50 [25] 1.29 nM and 3.25 nM | GI50 [26] 0.256 nM and < 3.25 nM | GI50 [27] 2.2 nM and 3.57 nM | GI50 [28] 0.382 nM and 3.25 nM | GI50 [29] 0.424 nM and 3.25 nM | GI50 [31] 0.402 nM and 3.25 nM | GI50 [32] 2.99 nM and 3.25 nM | GI50 [33] 1.02 nM and 3.25 nM | GI50 [34] 3.19 nM and 3.25 nM | GI50 [35] 10.9 nM and 5.64 nM | GI50 [36] 0.56 nM and 3.25 nM | GI50 [37] 7.56 nM and 30.5 nM | GI50 [38] 45.8 nM | GI50 [39] 0.748 nM and 3.25 nM | GI50 [40] 47.5 nM and 17.5 nM | GI50 [41] 0.499 nM | GI50 [42] 0.83 nM and 3.25 nM | GI50 [43] 5.11 nM and 3.25 nM | GI50 [44] 0.156 nM and < 3.25 nM | GI50 [45] 0.54 nM and 3.25 nM | GI50 [46] 1.05 nM and 3.25 nM | GI50 [47] 5.54 nM and 3.25 nM | GI50 [48] 0.186 nM and < 3.25 nM | GI50 [50] 3.78 nM and 3.25 nM | GI50 [51] 0.614 nM and 3.25 nM | GI50 [52] 3.33 nM and 3.25 nM | GI50 [53] 4.85 nM | GI50 [54] 0.878 nM and 3.25 nM | GI50 [55] 1.52 nM and 3.25 nM | GI50 [56] 0.734 nM
25.3 nM and 31.8 nM: TGI [1]
15.8 nM and < 3.25 nM: TGI [26]
12.1 µM: TGI [8]
1470 nM: TGI [31]
277 nM: TGI [4]
29.9 nM and 33.9 nM: TGI [55]
29.9 nM and 38.4 nM: TGI [39]
6.18 nM: TGI [47]
0.698 nM and < 3.25 nM: TGI [48]
9.18 µM: TGI [12]
0.901 nM and < 3.25 nM: TGI [44]
6.6 µM: TGI [34]
34.7 nM: TGI [33]
1.04 nM and < 3.25 nM: TGI [7]
371 nM: TGI [23]
